{
  "source": "patent US9980943B2",
  "about": "“Methods of treating muscular dystrophy” (BOARD OF REGENTS OF THE NEVADA SYSTEM OF HIGHER EDUCATION, …, priority 2013, dated 2018)",
  "format_in_all_cases": "cell-based, mouse",
  "key": {"[1]": {"tested_on": "β-galactosidase in CMV-LacZ C2C12 myotubes", "test": "CMV-LacZ secondary screen in C2C12 myotubes (β-Gal stabilizing assay)", "conditions": "for CMV-LACZ in Myotubes, signal relative to DMSO: C2C12 CMV-LacZ myotubes, fold relative to DMSO; for CMV-LACZ in Myotubes, value relative to DMSO: SU9516 analogs, C2C12 CMV-LacZ, N=2", "in_short": "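Stable CMV-LacZ C2C12 clone; six-point curve 0.5–40 μM; duplicates.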"}, "[2]": {"tested_on": "α7 integrin (LacZ reporter in α7+/LacZ myotubes)", "test": "Myotube α7 integrin FDG assay (Burkin assay in myotubes, 96-well)", "conditions": "for Burkin Assay in Myotubes, value relative to DMSO: SU9516 analogs, 96-well, N=3-6"}, "[3]": {"tested_on": "α7 integrin (LacZ reporter in α7βgal+/− myoblasts)", "test": "Myoblast α7+/LacZ integrin FDG assay (Burkin assay in myoblasts, 96-well)", "conditions": "96-well; for Burkin Assay in Myoblasts, signal relative to DMSO: α7+/LacZ myoblasts; for Burkin Assay in Myoblasts, value relative to DMSO: SU9516 analogs, N=3-6"}, "[4]": {"tested_on": "β-galactosidase in CMV-LacZ C2C12 myoblasts", "test": "CMV-LacZ secondary screen in C2C12 myoblasts (β-Gal stabilizing assay)", "conditions": "for CMV-LACZ in Myoblasts (β-galactosidase activity relative to DMSO): CMV-LacZ C2C12 myoblasts; for CMV-LACZ in Myoblasts, value relative to DMSO: SU9516 analogs, C2C12 CMV-LacZ, N=2", "in_short": "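β-Gal level was the read-out, measured in a clonal C2C12 line expressing LacZ from a CMV promoter. Dose-response curves used six concentrations, 0.5 μM up to 40 μM, with duplicate points.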"}},
  "data": [
    {"smiles": "Nc1ncnc(N2CCc3ccccc32)c1[N+](=O)[O-]", "note": "[MLS000683232-01]", "values": [
      {"measurement": "CMV-LACZ in Myotubes, signal relative to DMSO", "setting": "[1]; 0.5 uM", "value": 0.8200},
      {"measurement": "CMV-LACZ in Myotubes, signal relative to DMSO", "setting": "[1]; 1 uM", "value": 0.7752},
      {"measurement": "CMV-LACZ in Myotubes, signal relative to DMSO", "setting": "[1]; 5 uM", "value": 0.8743},
      {"measurement": "CMV-LACZ in Myotubes, signal relative to DMSO", "setting": "[1]; 10 uM", "value": 1.0086},
      {"measurement": "CMV-LACZ in Myotubes, signal relative to DMSO", "setting": "[1]; 20 uM", "value": 0.8835},
      {"measurement": "CMV-LACZ in Myotubes, signal relative to DMSO", "setting": "[1]; 40 uM", "value": 0.8365},
      {"measurement": "Burkin Assay in Myotubes, α7 integrin LacZ reporter signal relative to DMSO", "setting": "[2]; myotubes, 0.5 uM", "value": 1.136},
      {"measurement": "Burkin Assay in Myotubes, α7 integrin LacZ reporter signal relative to DMSO", "setting": "[2]; myotubes, 1 uM", "value": 1.2778},
      {"measurement": "Burkin Assay in Myotubes, α7 integrin LacZ reporter signal relative to DMSO", "setting": "[2]; myotubes, 5 uM", "value": 1.272},
      {"measurement": "Burkin Assay in Myotubes, α7 integrin LacZ reporter signal relative to DMSO", "setting": "[2]; myotubes, 10 uM", "value": 1.448},
      {"measurement": "Burkin Assay in Myotubes, α7 integrin LacZ reporter signal relative to DMSO", "setting": "[2]; myotubes, 20 uM", "value": 1.4149},
      {"measurement": "Burkin Assay in Myotubes, α7 integrin LacZ reporter signal relative to DMSO", "setting": "[2]; myotubes, 40 uM", "value": 1.32},
      {"measurement": "MT FOLD INCREASE", "setting": "[2]; myotubes, maximum response", "value": 1.7, "unit": "fold"},
      {"measurement": "EC50", "setting": "[2]; myotubes, nonlinear regression of dose-response curves, read-out: EC50 α7+/LacZ MT", "value": 5.3, "unit": "µM"},
      {"measurement": "Burkin Assay in Myoblasts, signal relative to DMSO", "setting": "[3]; 0.5 uM", "value": 1.234},
      {"measurement": "Burkin Assay in Myoblasts, signal relative to DMSO", "setting": "[3]; 1 uM", "value": 1.199},
      {"measurement": "Burkin Assay in Myoblasts, signal relative to DMSO", "setting": "[3]; 5 uM", "value": 1.6445},
      {"measurement": "Burkin Assay in Myoblasts, signal relative to DMSO", "setting": "[3]; 10 uM", "value": 1.778},
      {"measurement": "Burkin Assay in Myoblasts, signal relative to DMSO", "setting": "[3]; 20 uM", "value": 1.821},
      {"measurement": "Burkin Assay in Myoblasts, signal relative to DMSO", "setting": "[3]; 40 uM", "value": 1.654},
      {"measurement": "CMV-LACZ in Myoblasts (β-galactosidase activity relative to DMSO)", "setting": "[4]; 0.5 uM", "value": 0.8043},
      {"measurement": "CMV-LACZ in Myoblasts (β-galactosidase activity relative to DMSO)", "setting": "[4]; 1 uM", "value": 0.7131},
      {"measurement": "CMV-LACZ in Myoblasts (β-galactosidase activity relative to DMSO)", "setting": "[4]; 5 uM", "value": 0.5638},
      {"measurement": "CMV-LACZ in Myoblasts (β-galactosidase activity relative to DMSO)", "setting": "[4]; 10 uM", "value": 0.5224},
      {"measurement": "CMV-LACZ in Myoblasts (β-galactosidase activity relative to DMSO)", "setting": "[4]; 20 uM", "value": 0.6119},
      {"measurement": "CMV-LACZ in Myoblasts (β-galactosidase activity relative to DMSO)", "setting": "[4]; 40 uM", "value": 0.8237}
    ]},
    {"smiles": "Cc1ccsc1CN(C)CC(=O)Nc1ccc([N+](=O)[O-])cc1Cl", "note": "[MLS001172822-01]", "values": [
      {"measurement": "CMV-LACZ in Myotubes, signal relative to DMSO", "setting": "[1]; 0.5 uM", "value": 1.2590},
      {"measurement": "CMV-LACZ in Myotubes, signal relative to DMSO", "setting": "[1]; 1 uM", "value": 1.0514},
      {"measurement": "CMV-LACZ in Myotubes, signal relative to DMSO", "setting": "[1]; 5 uM", "value": 1.2505},
      {"measurement": "CMV-LACZ in Myotubes, signal relative to DMSO", "setting": "[1]; 10 uM", "value": 1.1819},
      {"measurement": "CMV-LACZ in Myotubes, signal relative to DMSO", "setting": "[1]; 20 uM", "value": 1.1768},
      {"measurement": "CMV-LACZ in Myotubes, signal relative to DMSO", "setting": "[1]; 40 uM", "value": 0.6358},
      {"measurement": "Burkin Assay in Myotubes, α7 integrin LacZ reporter signal relative to DMSO", "setting": "[2]; myotubes, 0.5 uM", "value": 0.9496},
      {"measurement": "Burkin Assay in Myotubes, α7 integrin LacZ reporter signal relative to DMSO", "setting": "[2]; myotubes, 1 uM", "value": 0.9315},
      {"measurement": "Burkin Assay in Myotubes, α7 integrin LacZ reporter signal relative to DMSO", "setting": "[2]; myotubes, 5 uM", "value": 0.8513},
      {"measurement": "Burkin Assay in Myotubes, α7 integrin LacZ reporter signal relative to DMSO", "setting": "[2]; myotubes, 10 uM", "value": 0.861},
      {"measurement": "Burkin Assay in Myotubes, α7 integrin LacZ reporter signal relative to DMSO", "setting": "[2]; myotubes, 20 uM", "value": 0.8466},
      {"measurement": "Burkin Assay in Myotubes, α7 integrin LacZ reporter signal relative to DMSO", "setting": "[2]; myotubes, 40 uM", "value": 0.7858},
      {"measurement": "Burkin Assay in Myoblasts, signal relative to DMSO", "setting": "[3]; 0.5 uM", "value": 1.233},
      {"measurement": "Burkin Assay in Myoblasts, signal relative to DMSO", "setting": "[3]; 1 uM", "value": 1.351},
      {"measurement": "Burkin Assay in Myoblasts, signal relative to DMSO", "setting": "[3]; 5 uM", "value": 0.9662},
      {"measurement": "Burkin Assay in Myoblasts, signal relative to DMSO", "setting": "[3]; 10 uM", "value": 0.9014},
      {"measurement": "Burkin Assay in Myoblasts, signal relative to DMSO", "setting": "[3]; 20 uM", "value": 0.987},
      {"measurement": "Burkin Assay in Myoblasts, signal relative to DMSO", "setting": "[3]; 40 uM", "value": 0.9597},
      {"measurement": "CMV-LACZ in Myoblasts (β-galactosidase activity relative to DMSO)", "setting": "[4]; 0.5 uM", "value": 0.9304},
      {"measurement": "CMV-LACZ in Myoblasts (β-galactosidase activity relative to DMSO)", "setting": "[4]; 1 uM", "value": 1.0617},
      {"measurement": "CMV-LACZ in Myoblasts (β-galactosidase activity relative to DMSO)", "setting": "[4]; 5 uM", "value": 1.1375},
      {"measurement": "CMV-LACZ in Myoblasts (β-galactosidase activity relative to DMSO)", "setting": "[4]; 10 uM", "value": 1.0904},
      {"measurement": "CMV-LACZ in Myoblasts (β-galactosidase activity relative to DMSO)", "setting": "[4]; 20 uM", "value": 0.9285},
      {"measurement": "CMV-LACZ in Myoblasts (β-galactosidase activity relative to DMSO)", "setting": "[4]; 40 uM", "value": 1.2767}
    ]},
    {"smiles": "O=C1C(c2c(O)[nH]c3ccccc23)=Nc2ccccc21", "note": "[NCGC00179302-02]", "values": [
      {"measurement": "CMV-LACZ in Myotubes, value relative to DMSO", "setting": "[1]; 0.5 uM", "value": 0.9618},
      {"measurement": "CMV-LACZ in Myotubes, value relative to DMSO", "setting": "[1]; 1 uM", "value": 0.9736},
      {"measurement": "CMV-LACZ in Myotubes, value relative to DMSO", "setting": "[1]; 5 uM", "value": 1.1533},
      {"measurement": "CMV-LACZ in Myotubes, value relative to DMSO", "setting": "[1]; 10 uM", "value": 0.9196},
      {"measurement": "CMV-LACZ in Myotubes, value relative to DMSO", "setting": "[1]; 20 uM", "value": 1.0030},
      {"measurement": "CMV-LACZ in Myotubes, value relative to DMSO", "setting": "[1]; 40 uM", "value": 1.1410},
      {"measurement": "Burkin Assay in Myotubes, value relative to DMSO", "setting": "[2]; 0.5 uM", "value": 0.9349},
      {"measurement": "Burkin Assay in Myotubes, value relative to DMSO", "setting": "[2]; 1 uM", "value": 0.9377},
      {"measurement": "Burkin Assay in Myotubes, value relative to DMSO", "setting": "[2]; 5 uM", "value": 0.8181},
      {"measurement": "Burkin Assay in Myotubes, value relative to DMSO", "setting": "[2]; 10 uM", "value": 0.7913},
      {"measurement": "Burkin Assay in Myotubes, value relative to DMSO", "setting": "[2]; 20 uM", "value": 0.682},
      {"measurement": "Burkin Assay in Myotubes, value relative to DMSO", "setting": "[2]; 40 uM", "value": 0.6871},
      {"measurement": "Burkin Assay in Myoblasts, value relative to DMSO", "setting": "[3]; 0.5 uM", "value": 1.061},
      {"measurement": "Burkin Assay in Myoblasts, value relative to DMSO", "setting": "[3]; 1 uM", "value": 1.0859},
      {"measurement": "Burkin Assay in Myoblasts, value relative to DMSO", "setting": "[3]; 5 uM", "value": 0.606},
      {"measurement": "Burkin Assay in Myoblasts, value relative to DMSO", "setting": "[3]; 10 uM", "value": 0.7163},
      {"measurement": "Burkin Assay in Myoblasts, value relative to DMSO", "setting": "[3]; 20 uM", "value": 0.843},
      {"measurement": "Burkin Assay in Myoblasts, value relative to DMSO", "setting": "[3]; 40 uM", "value": 0.8067},
      {"measurement": "CMV-LACZ in Myoblasts, value relative to DMSO", "setting": "[4]; 0.5 uM", "value": 1.1867},
      {"measurement": "CMV-LACZ in Myoblasts, value relative to DMSO", "setting": "[4]; 5 uM", "value": 2.4679},
      {"measurement": "CMV-LACZ in Myoblasts, value relative to DMSO", "setting": "[4]; 10 uM", "value": 1.6628},
      {"measurement": "CMV-LACZ in Myoblasts, value relative to DMSO", "setting": "[4]; 20 uM", "value": 1.0247},
      {"measurement": "CMV-LACZ in Myoblasts, value relative to DMSO", "setting": "[4]; 40 uM", "value": 1.2873}
    ]}
  ]
}
